This note sets out measurements from ChEMBL document CHEMBL4145551, “Mitochondria-targeting indolizino[3,2-c]quinolines as novel class of photosensitizers for photodynamic anticancer activity” (Eur J Med Chem, 2018).

The source made the active and inactive calls. No cut-off for these calls is given here. Bounds are passed on as bounds.

The IC50 is the concentration at which inhibition is half-maximal.

In series [1] the test system is DNA. As to the kind of experiment: Binding affinity to Escherichia coli pBR322 DNA assessed as increase in test compound fluorescence up to 10 uM after 30 mins under blue LED light irradiation relative to control. The format is nucleic-acid assay.
A short description of series [2]: Drug uptake in human MCF7 cell mitochondria at 10 uM incubated for 1 to 2 hrs under 488 nanometer laser light irradiation by confocal microscopic method. The class given is ADME. The settings on record: mcf7, 10 µM.
The test system of series [3] is DNA. The series is described as follows: Binding affinity to Escherichia coli pBR322 DNA assessed as increase in test compound fluorescence after 30 mins under blue LED light irradiation. The format is nucleic-acid assay.
The subject of series [4] is DNA. As to the kind of experiment: Induction of Escherichia coli pBR322 DNA cleavage irradiated with blue LED light after 30 mins by agarose gel electrophoresis method. The class given is nucleic-acid assay.
The test system of series [5] is HeLa. The series is described as follows: Photocytotoxicity against human HeLa cells assessed as DNA fragmentation up to 10 uM preincubated for 1 hr followed by blue LED light irradiation for 5 mins and measured after 13 hrs by Hoechst 33258 staining based fluorescence microscopic method. The format is functional, cell-based.
The test system of series [6] is HeLa. The series is described as follows: Photocytotoxicity against human HeLa cells assessed as cell shrinkage at 10 uM preincubated for 1 hr followed by blue LED light irradiation for 5 mins and measured after 13 hrs by propidium iodide staining based fluorescence microscopic method. The class given is functional.
Series [7] is described as follows: Dark toxicity in human MCF7 cells assessed as reduction in cell viability up to 10 uM measured after 24 hrs by MTT assay. The class given is cell-based. The settings on record: mcf7, 24 h. (In general: Tetrazolium dyes change colour on reduction, which living cells bring about.)
The test system of series [8] is HeLa. As to the kind of experiment: Photocytotoxicity against human HeLa cells assessed as plasma membrane blebbing up to 10 uM preincubated for 1 hr followed by blue LED light irradiation for 5 mins and measured after 13 hrs by Hoechst 33258 staining based fluorescence microscopic method. The class given is functional, cell-based.
Series [9] deals with HeLa. The series is described as follows: Photocytotoxicity against human HeLa cells assessed as cell rounding at 5 uM preincubated for 1 hr followed by blue LED light irradiation for 10 to 30 mins and measured after 2.5 hrs by holotomographic method. The format is functional, cell-based.
The test system of series [10] is HeLa. The series is described as follows: Photocytotoxicity against human HeLa cells assessed as increase in cleaved caspase-3 protein expression preincubated for 1 hr followed by blue LED light irradiation for 10 mins and measured after 18 hrs by Western blot analysis. The class given is functional, cell-based. Background: Immunoblotting shows a protein as a band on a membrane.

Series [11] relates to HeLa. As to the kind of experiment: Photocytotoxicity against human HeLa cells assessed as reduction in cell viability preincubated for 1 hr followed blue LED light irradiation for 10 mins and measured after 24 hrs by MTT assay. The class given is functional, cell-based.
For series [12], the system named is HeLa. As to the kind of experiment: Photocytotoxicity against human HeLa cells assessed as reduction in cell viability preincubated for 1 hr followed blue LED light irradiation for 5 mins and measured after 24 hrs by MTT assay. The class given is functional, cell-based.
For series [13], the system named is HeLa. The series is described as follows: Photocytotoxicity against human HeLa cells assessed as plasma membrane blebbing at 20 uM preincubated for 1 hr followed by blue LED light irradiation for 10 mins and measured after 2.5 hrs by holotomographic method. The class given is functional, cell-based.
Series [14] deals with HeLa. The series is described as follows: Photocytotoxicity against human HeLa cells assessed as cellular shrinkage up to 10 uM preincubated for 1 hr followed by blue LED light irradiation for 5 mins and measured after 13 hrs by Hoechst 33258 staining based fluorescence microscopic method. The format is functional, cell-based.
In series [15] the test system is A549. The series is described as follows: Photocytotoxicity against human A549 cells assessed as reduction in cell viability preincubated for 1 hr followed blue LED light irradiation for 5 mins and measured after 24 hrs by MTT assay. The format is functional, cell-based.
A short description of series [16]: Dark toxicity in human HeLa cells assessed as morphological changes at 10 uM measured after 14 hrs by propidium iodide staining based fluorescence microscopic method. The class given is cell-based.

`Cc1cccn2c1cc1c3ccccc3nc(-c3ccco3)c12`: the fold change (FC) in series [1] was under 4. Besides, the Drug uptake result in series [2] is on record as “Active”. The Activity result in [3] is “Dose-dependent effect”; in series [4] it was “Dose-dependent effect”; in [7], “Non-Toxic”; in [10], “Dose-dependent effect”; in [11], “Dose-dependent effect”; in series [12], “Dose-dependent effect”. The Activity result in [15] is “Dose-dependent effect”; in series [16], “Non-Toxic”. Moreover, the result in [5], in [6], in [8], in series [9], in [13] and in series [14] was Active. Besides, the IC50 in [11] (light or radiation study) turned out to be 1120 nM; in series [12] (light or radiation study), 1760 nM; in series [15] (A549, light or radiation study) it was 2960 nM.
